Molecular target: myeloperoxidase (MPO) (Homo sapiens, UniProt P05164)
Experiment: microscale thermophoresis
Format: binding

Chain of myeloperoxidase (MPO) (P05164 165-273): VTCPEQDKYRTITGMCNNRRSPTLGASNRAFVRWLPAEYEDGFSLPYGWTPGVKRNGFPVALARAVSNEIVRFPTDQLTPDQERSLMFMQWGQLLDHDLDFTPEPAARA
Chain of myeloperoxidase (MPO) (P05164 279-745): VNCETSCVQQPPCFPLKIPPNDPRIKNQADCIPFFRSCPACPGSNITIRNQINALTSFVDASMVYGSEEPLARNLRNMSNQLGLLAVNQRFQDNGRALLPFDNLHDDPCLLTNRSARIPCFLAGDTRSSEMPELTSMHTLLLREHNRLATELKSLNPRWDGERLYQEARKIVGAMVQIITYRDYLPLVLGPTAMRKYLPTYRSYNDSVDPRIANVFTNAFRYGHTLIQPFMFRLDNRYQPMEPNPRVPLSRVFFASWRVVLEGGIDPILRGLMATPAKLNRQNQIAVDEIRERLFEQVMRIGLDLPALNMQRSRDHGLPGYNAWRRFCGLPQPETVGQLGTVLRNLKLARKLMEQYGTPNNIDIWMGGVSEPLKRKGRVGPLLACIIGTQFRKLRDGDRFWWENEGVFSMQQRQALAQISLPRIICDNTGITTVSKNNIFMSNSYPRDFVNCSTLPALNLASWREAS

Structure (SMILES): c1ccc2[nH]ccc2c1 [indole, 1H-indole]
- Kd: 272 ± 77.4 µM

Source: publication PMC8078834 (FASEB journal : official publication of the Federation of …, 2021)
